Assay results from ChEMBL document CHEMBL5113468, “Design, synthesis, and biological evaluation of novel double-winged galloyl derivatives as HIV-1 RNase H inhibitors” (Eur J Med Chem, 2022).

Legend:
[1] = test system: Human immunodeficiency virus 1; experiment: Antiviral activity against HIV1 3B infected in human MT4 cells assessed as protection against virus-induced cytopathic effect incubated for 5 days by MTT assay; format: functional, organism-based; details: Human immunodeficiency virus 1, 3B, MT4, 120 h
[2] = target: Human immunodeficiency virus type 1 reverse transcriptase (Human immunodeficiency virus 1) (UniProt Q72547); experiment: Inhibition of wild-type recombinant HIV-1 group M subtype B BH10 reverse transcriptase RNase-associated RNase H activity expressed in Escherichia coli XL1 blue at 100 uM using 32P-labeled 5'-[…]-3'/5'-[…]-3' RNA/DNA template-primer as substrate preincubated for 5 mins followed by substrate addition and measured after 15 mins by phosphorimaging analysis relative to control; details: time 20.0 min
[3] = Cytotoxicity against human MT4 cells assessed as reduction in cell viability measured after 5 days by MTT assay; format: toxicity, cell-based; details: time 5 day
[4] = target: Human immunodeficiency virus type 1 reverse transcriptase (Human immunodeficiency virus 1, UniProt Q72547); experiment: Inhibition of wild-type recombinant HIV-1 group M subtype B BH10 reverse transcriptase RNase-associated RNase H activity expressed in Escherichia coli XL1 blue using 32P-labeled 5'-UUUUUUUUUAGGAUACAUAUGGUUAAAGUAU-3'/5'-ATACTTTAACCATATGTATCC-3' RNA/DNA template-primer as substrate preincubated for 5 mins followed by substrate addition and measured after 15 mins by phosphorimaging analysis
[5] = test system: Human immunodeficiency virus 2; experiment: Antiviral activity against HIV2 ROD infected in human MT4 cells assessed as protection against virus-induced cytopathic effect incubated for 5 days by MTT assay; format: functional, organism-based; details: Human immunodeficiency virus 2, ROD, MT4, 120 h
[6] = Apparent permeability across apical to basolateral side in human Caco-2 cells at 2 uM measured after 2 hrs by LC-MS/MS analysis; format: ADME, cell-based
[7] = target: Human immunodeficiency virus type 1 reverse transcriptase (Human immunodeficiency virus 1) (UniProt Q72547); experiment: Potency index, ratio of beta-thujaplicinol IC50 to test compound IC50 for inhibition of wild-type recombinant HIV-1 group M subtype B BH10 reverse transcriptase RNase-associated RNase H activity expressed in Escherichia coli XL1 blue

SMILES	inhibition [2]	IC50 [4]	Papp A→B at 2 h, 2 µM [6]	Ratio IC50 [7]	EC50 [1]	CC50 at 120 h [3]	EC50 [5]
Nc1ccc(S(=O)(=O)N2CCN(C(=O)c3cc(O)c(O)c(O)c3)C(C(=O)NCc3ccc(-c4ccccc4)cc3)C2)cc1 (centres undefined)	47.6%	> 100 µM			> 207 µM	207 µM	> 207 µM
Nc1ccn([C@@H]2CS[C@H](CO)O2)c(=O)n1 [LAMIVUDINE]						> 87.3 µM	
N#Cc1ccc(S(=O)(=O)N2CCN(C(=O)c3cc(O)c(O)c(O)c3)C(C(=O)Nc3ccccc3)C2)cc1 (centres undefined)	60.6%	> 20 µM			> 130 µM	130 µM	> 130 µM
Nc1ccc(S(=O)(=O)N2CCN(C(=O)c3cc(O)c(O)c(O)c3)CC2C(=O)NCc2cccs2)cc1 (centres undefined)	39.6%	> 100 µM			> 235 µM	235 µM	> 235 µM
Nc1ccc(S(=O)(=O)N2CCN(C(=O)c3cc(O)c(O)c(O)c3)CC2)cc1		0.72 µM			> 18 µM	18 µM	> 18 µM
Nc1ccc(S(=O)(=O)N2CCN(C(=O)c3cc(O)c(O)c(O)c3)CC2C(=O)Nc2ccccc2)cc1 (centres undefined)		0.56 µM			> 19.1 µM	19.1 µM	> 19.1 µM
Nc1ccc(S(=O)(=O)N2CCN(C(=O)c3cc(O)c(O)c(O)c3)C(C(=O)NCc3cccs3)C2)cc1 (centres undefined)	45%	> 100 µM			> 235 µM	167 µM	> 167 µM
COCCc1ccc(OCC(O)CNC(C)C)cc1 (centres undefined) [METOPROLOL]			< 0.48 ×10⁻⁶ cm/s				
N#Cc1ccc(S(=O)(=O)N2CCN(C(=O)c3cc(O)c(O)c(O)c3)C(C(=O)NCc3ccc4ccccc4c3)C2)cc1 (centres undefined)	71.9%	> 20 µM			> 213 µM	213 µM	> 213 µM
N#Cc1ccc(S(=O)(=O)N2CCN(C(=O)c3cc(O)c(O)c(O)c3)C(C(=O)NCc3ccc(-c4ccccc4)cc3)C2)cc1 (centres undefined)		0.41 µM			> 7.9 µM	7.9 µM	> 7.9 µM
CN(C(=O)C1CN(S(=O)(=O)c2ccc(N)cc2)CCN1C(=O)c1cc(O)c(O)c(O)c1)c1ccccc1 (centres undefined)		0.99 µM			> 237 µM	237 µM	> 237 µM
COc1ccc(CNC(=O)C2CN(S(=O)(=O)c3ccc(C#N)cc3)CCN2C(=O)c2cc(O)c(O)c(O)c2)cc1 (centres undefined)	81.4%	> 10 µM			> 21.4 µM	21.4 µM	> 21.4 µM
N#Cc1ccc(S(=O)(=O)N2CCN(C(=O)c3cc(O)c(O)c(O)c3)C(C(=O)NCc3ccco3)C2)cc1 (centres undefined)	57.1%	> 20 µM			> 108 µM	108 µM	> 108 µM
CC(C)c1ccc(O)c(=O)c(O)c1 [BETA-THUJAPLICINOL]					> 2.5 µM		> 2.5 µM
CN(C(=O)C1CN(C(=O)c2cc(O)c(O)c(O)c2)CCN1S(=O)(=O)c1ccc(N)cc1)c1ccccc1 (centres undefined)		1.78 µM			> 135 µM	135 µM	> 135 µM
Cc1ccnc2c1NC(=O)c1cccnc1N2C1CC1 [NEVIRAPINE]					0.17 µM	> 15 µM	
Nc1ccc(S(=O)(=O)N2CCN(C(=O)c3cc(O)c(O)c(O)c3)CC2C(=O)NCc2ccc(-c3ccccc3)cc2)cc1 (centres undefined)		0.34 µM			> 18.3 µM	18.3 µM	> 18.3 µM

More lines, main results first:

inhibition [2]	IC50 [4]	Papp A→B at 2 h, 2 µM [6]	Ratio IC50 [7]	SMILES	EC50 [1]	CC50 at 120 h [3]	EC50 [5]
	0.27 µM			COc1ccc(CNC(=O)C2CN(S(=O)(=O)c3ccc(N)cc3)CCN2C(=O)c2cc(O)c(O)c(O)c2)cc1 (centres undefined)	> 21.7 µM	21.7 µM	> 21.7 µM
	0.33 µM			Nc1ccc(S(=O)(=O)N2CCN(C(=O)c3cc(O)c(O)c(O)c3)C(C(=O)Nc3ccccc3)C2)cc1 (centres undefined)	> 50.8 µM	50.8 µM	> 50.8 µM
	0.13 µM			Nc1ccc(S(=O)(=O)N2CCN(C(=O)c3cc(O)c(O)c(O)c3)CC2C(=O)NCc2ccco2)cc1 (centres undefined)	> 25.3 µM	25.3 µM	> 25.3 µM
	0.18 µM			CC(C)(C)OC(=O)N1CCC2(CCN(C(=O)C3CN(C(=O)c4cc(O)c(O)c(O)c4)CCN3S(=O)(=O)c3ccc(N)cc3)C2)C1 (centres undefined)	> 42 µM	42 µM	> 42 µM
	0.22 µM			Nc1ccc(S(=O)(=O)N2CCN(C(=O)c3cc(O)c(O)c(O)c3)CC2C(=O)NCc2cccc3ccccc23)cc1 (centres undefined)	> 21.6 µM	21.6 µM	> 21.6 µM
	0.067 µM	0.2 ×10⁻⁶ cm/s	30	Nc1ccc(S(=O)(=O)N2CCN(C(=O)c3cc(O)c(O)c(O)c3)C(C(=O)NCc3ccco3)C2)cc1 (centres undefined)	> 24.7 µM	24.7 µM	> 24.7 µM
	0.31 µM			CN(C(=O)C1CN(S(=O)(=O)c2ccc(C#N)cc2)CCN1C(=O)c1cc(O)c(O)c(O)c1)c1ccccc1 (centres undefined)	> 113 µM	113 µM	> 113 µM
	0.14 µM			COc1ccc(CNC(=O)C2CN(C(=O)c3cc(O)c(O)c(O)c3)CCN2S(=O)(=O)c2ccc(N)cc2)cc1 (centres undefined)	> 20.4 µM	20.4 µM	> 20.4 µM
